PMC5378937 (The Journal of Pharmacology and Experimental Therapeutics, 2016)
Where a chain is given by its changes, count along the chain named. “Also recorded” adds a separate entry of the source. Where two headings read alike, the source gives them in different places.

How the values were obtained:
[1] = molecular target: 5-HT3 receptors; design: method as in Ashoor et al., 2013; details: ref Ashoor et al., 2013; cited from earlier work
[2] = molecular target: T1, 5-HT3 receptor (Homo sapiens, UniProt P46098); test: Flow cytometry competition binding with 10 nM fluorescent granisetron (G-FL) in HEK293 cells; design: expressed in transfected cells; host or cells: HEK293 cells, transient transfection with pcDNA3.1 construct; details: concentrations up to 1 mM, n = 3
T1 sequence (P46098 24-478): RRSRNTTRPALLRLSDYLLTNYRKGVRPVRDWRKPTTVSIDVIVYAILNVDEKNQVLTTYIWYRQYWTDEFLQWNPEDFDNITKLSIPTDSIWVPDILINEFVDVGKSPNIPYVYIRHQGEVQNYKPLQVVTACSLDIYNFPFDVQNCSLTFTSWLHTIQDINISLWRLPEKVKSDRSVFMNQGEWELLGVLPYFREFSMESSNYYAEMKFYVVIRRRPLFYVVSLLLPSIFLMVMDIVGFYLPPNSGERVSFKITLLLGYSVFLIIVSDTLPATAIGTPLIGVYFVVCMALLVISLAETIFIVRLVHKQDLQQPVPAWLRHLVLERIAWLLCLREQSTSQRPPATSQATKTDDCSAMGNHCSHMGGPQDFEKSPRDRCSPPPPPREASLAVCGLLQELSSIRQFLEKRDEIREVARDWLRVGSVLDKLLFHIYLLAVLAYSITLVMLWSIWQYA
Protocol: 5-HT3A subunit cDNA was cloned into pcDNA3.1 for expression in HEK293 cells (ThermoFisher Scientific, Waltham, MA). Cells were transiently transfected with this cDNA using polyethyleneimine (25 kDa, linear, powder; Polysciences Inc., Eppelheim, Germany). Thirty microliters of polyethyleneimine (1 mg ml^−1), 5 μg of cDNA, and 1 ml of DMEM were incubated for 10 minutes at room temperature, added dropwise to a 90-mm plate of 70–80% confluent HEK293 cells, and incubated for 2–3 days before use.
HEK293 cells expressing the 5-HT3 receptor were grown in monolayers and harvested from a 90-mm culture dish using 10 ml of Trypsin-EDTA (Sigma-Aldrich) for 10 minutes at 37°C. Digestion was terminated by the addition of 25 ml DMEM + 10% fetal bovine serum, and cells were pelleted at low speed for 2 minutes. […] Competition binding was measured by incubating HEK293 cells with different concentrations of nonlabeled ligands and 10 nM fluorescent granisetron (G-FL). […] The geometric mean was measured at each concentration of test compound and fitted to eq. 1 (see the following section) using a least-squares method (GraphPad Prism v4; GraphPad Software, La Jolla, CA).

[3] = molecular target: T2, human 5-HT3 receptors (5-HT3A) (Homo sapiens, UniProt P46098); test: Two-electrode voltage clamp of 5-HT-evoked currents in Xenopus oocytes expressing 5-HT3 receptors, nonlinear mixed-effects modeling
T2 sequence (P46098 24-478): T1 sequence (P46098 24-478)
Protocol: 5-HT3A subunit cDNA was cloned into pGEMHE for oocyte expression. cRNA was transcribed in vitro from a linearized plasmid cDNA template using the mMessage mMachine Ultra T7 Transcription kit (Ambion, Austin, TX). Stage V and VI oocytes were injected with 50 nl of 100–500 ng µl^−1 cRNA (5–25 ng injected), and currents were recorded 1–4 days postinjection.
Specifically, NONMEM allows the modeling of the relationship between drug and response, and importantly, the random between-oocyte variance, which is considerable. NONMEM enabled a single unified model to be created that included all electrophysiological agonist and antagonist data. […] The ability to allow for between-oocyte variance enabled raw peak currents to be analyzed, rather than normalized values. Normalization can obscure relationships between parameters, resulting in inaccurate and imprecise estimates of drug effects. Differences in peak currents and agonist potency between different oocytes were modeled with population variances (ω^2) associated with model parameters.
A structural model defined the relationship between the independent variables (i.e., agonist and antagonist concentrations) and the peak current (dependent variable).
The effect of time on the agonist response was modeled linearly as:(2) [drawing 2] where Max0 = as in eq. 1; MaxT = PRED when [A] = ∞ at time T; T = time (hours) from start of individual experiment; and nT = change in response per hour expressed as a proportion of the response at T = 0 (nT = 0 represents no change; nT = −0.1 represents a reduction of 10%, and nT = 0.1 represents an increase of 10% per hour).
The effect of the compounds on MaxT was modeled as follows:(3) [drawing 3] where MaxT = PRED when [A] = ∞ in the absence of drug D at time T (eq. 2); Max(D) = PRED when [A] = ∞ in the presence of drug D at time T; [D] = concentration of inhibitor drug; pIC50 = −log10[D] in the presence of which Max(D) = MaxT/2; and nH(D) = inhibitor Hill coefficient. (This model assumes that, when [D] = ∞, PRED = 0.)

[4] = molecular target: T3, 5-HT3AT6'S receptors (Homo sapiens, UniProt P46098, T279S); test: Two-electrode voltage clamp in oocytes expressing the 5-HT3AT6'S receptor mutant; assay type: cell-based; details: for ΔpEC50 (ΔpIC50 for inhibitors, T6'S vs wild-type): 2 µM 5-HT; for IC50: read-out: pEC50 (pIC50 for inhibitors) at T6'S mutant (converted)
T3 construct: expressed in transfected cells; host or cells: Xenopus oocytes
T3 sequence (P46098 24-478 T279S): T1 sequence (P46098 24-478) with T256S
Protocol: Microelectrodes were fabricated from borosilicate glass (GC120TF-10; Harvard Apparatus, Edenbridge, Kent, UK) using a two-stage horizontal pull (P-97; Sutter Instrument Company, Novato, CA) and filled with 3 M KCl. Pipette resistances ranged from 0.8 to 2.0 MΩ. Oocytes were placed in a perfusion chamber made from 2-mm-wide × 30-mm-long silicon tubing that was cut in half lengthways (total volume ∼0.1 ml), and were perfused with ND96 at a rate of 12 ml min^−1. Drug application was via a simple gravity-fed system calibrated to run at the same rate. […] A 3-minute wash was used between compound applications. Oils were dissolved in buffer containing 1% DMSO, freshly prepared each day, and constantly stirred during the experiments.
The effects of the compounds on 5-HT3AT6'S receptors were also evaluated. […] Parameters were incorporated into the model that defined changes in pEC50, pIC50, Max0, and pA2 values for 5-HT3AT6'S receptors. These parameters were statistically evaluated as described earlier.
Parameters were included in the model that allowed differences in agonist and inhibitory effects to be quantified and evaluated.

[5] = molecular target: T1, 5-HT3 receptor; test: Dual application with bilobalide or diltiazem (allotopic vs syntopic inhibition), oocytes; assay type: cell-based; design: expressed in transfected cells; host or cells: Xenopus oocytes injected with cRNA transcribed from pGEMHE; details: 100 µM 5-HT
Protocol: Dual application studies were performed as previously described ([Jarvis and Thompson, 2013]). This is a simple method to determine whether two channel blockers share the same binding site (syntopic inhibition) or bind to separate locations (allotopic inhibition). […] Concentrations of the test compounds, BB and DTZ, were selected such that they caused approximately 62% inhibition when used alone. From the results of these experiments, predicted levels of inhibition were derived for both allotopic and syntopic modes of action. These predictions were compared with data obtained experimentally using the same concentrations of the inhibitors acting together. For each oocyte, the change in the amplitude of the 5-HT response over time was monitored and taken into account. Inhibition by drugs was quantified in relation to interpolated control responses for each time point.
The dual application measurements were compared statistically with allotopic and syntopic predictions using a two-way analysis of variance in which the oocyte was included as a random effect (SPSS Statistics 20; IBM, Armonk, NY). Post-hoc testing was with Dunnett’s method, comparing the measured data to each of the predictions.

[6] = test system: 5-HT-evoked contractions of guinea pig ileum; test: 5-HT-evoked contraction of isolated guinea pig ileum
Protocol: Guinea pig ileum was obtained from adult male guinea pigs (200–300 g). The ileum was cut into 1-cm lengths and mounted longitudinally to a force transducer with a resting tension of 0.5 g in a 10-ml water-jacketed organ bath containing Krebs’ buffer (118 mM NaCl, 4.7 mM KCl, 1.2 mM MgSO4, 1.25 mM CaCl2, 11 mM glucose, 10 mM HEPES, pH 7.2) continuously aerated with 95% O2/5% CO2 and kept at 37°C. The ileum segments were allowed to equilibrate for 10 minutes before the experiments were started, and contractile responses were recorded using LabChart 6 (ADInstruments Ltd., Oxford, UK). […] Following drug applications, the organ bath was flushed twice with fresh Krebs’ solution, and the ileum was allowed to recover for 10 minutes prior to the next application. […] Experiments involving animals were approved by the University of Cambridge Animal Welfare and Ethical Review Body (reference: PHARM 004/15).

[7] = test system: 5-HT-induced contractions in rat trachea; test: 5-HT-induced contraction of isolated rat trachea; details: granisetron 10 µM
Protocol: The trachea was removed from male Wistar albino rats (250–350 g), cut into 2-cm lengths, and mounted on a force transducer with a resting tension of 1.0 g in a 10-ml water-jacketed organ bath containing modified Tyrode’s solution (136 mM NaCl, 5 mM KCl, 0.98 mM MgCl2, 0.36 mM NaH2PO4, 2 mM CaCl2, 11.9 mM NaHCO3, 5.5 mM glucose, pH 7.4) continuously aerated with 95% O2/5% CO2 and kept at 37°C. Contractile responses were recorded using a force transducer (model FT03; Grass Technologies, Quincy, MA) connected to a PC-based data acquisition system (Dataq, PM-1000; DATAQ Instruments Inc., Akron, OH). The experiments were conducted after an equilibration period of 60 minutes and three successive similar contractile responses. Experiments were approved by the local animal ethics committee (protocol number 00084/2014.2).

[8] = IC50 (inhibition of 5-HT-evoked currents), wild-type, from nonlinear mixed-effects model
[9] = IC50 derived from normalized data, wild-type, normalized data instead of mixed-effects model
[10] = wild-type, population parameter estimate
[11] = wild-type, population parameter estimate, listed as Eucalyptol

| SMILES | IC50 [3, 8] [µM] | IC50 [3, 9] [µM] | nH (inhibitor Hill coefficient) [3, 10] | Reduction of inhibitory potency compared with wild-type receptors [4] | ΔpEC50 (ΔpIC50 for inhibitors, T6'S vs wild-type) [4] | IC50 [4] [µM] | Measured dual inhibition with diltiazem compared with predictions [5] | Competition with G-FL binding [2] | Agonist action when applied alone [4] | Measured dual inhibition with bilobalide compared with predictions [5] | Effect on agonist (5-HT) pEC50 (interpretation of nG hypothesis test) ([3]; wild-type) | other results |
| --- | --- | --- | --- | --- | --- | --- | --- | --- | --- | --- | --- | --- |
| CC1CCC(C(C)C)C(O)C1 (centres unmarked) [menthol] | – | – | – | – | – | – | – | – | – | – | – | IC50 [1]: 163 µM |
| CC(C)=CCCC(C)=CC=O (mixture of isomers) [citral] | 120 | 98 | 1.3 | approximately 2 fold | −0.36 ± 0.10 | 282 | no different from the allotopic predictions | unaffected; also recorded: no competition | did not evoke currents; also recorded: no agonist action | no different from the allotopic predictions | – | Effect on agonist (5-HT) pEC50 (interpretation of nG hypothesis test) [3]: No evidence that citral changes agonist pEC50; nH (inhibitor Hill coefficient) ([3]; wild-type, population parameter estimate, listed as Citral): 1.34 ± 0.08 |
| NCCc1c[nH]c2ccc(O)cc12 [5-HT, 5-hydroxytryptamine, reference compound] | – | – | – | – | – | – | – | – | – | – | – | 5-HT nH (agonist Hill coefficient) ([3]; wild-type): 2.94 ± 0.13; Max (maximal 5-HT peak current) [3, 10]: 4.94 ± 0.64 µA; Increase in 5-HT sensitivity in the T6'S mutant [4]: 2 fold; ΔpEC50 (T6'S vs wild-type) ([4]; agonist 5-HT): 0.35 ± 0.07 |
| CN1C2CCCC1CC(NC(=O)c1nn(C)c3ccccc13)C2 (centres unmarked) [granisetron] | – | – | – | – | – | – | – | – | – | – | – | Effect on 5-HT-evoked contractions [6]: inhibited; Effect on 5-HT-induced contractions [7]: substantially inhibited |

Further lines, with some results ahead:

| IC50 [3, 8] [µM] | IC50 [3, 9] [µM] | nH (inhibitor Hill coefficient) [3, 10] | Reduction of inhibitory potency compared with wild-type receptors [4] | ΔpEC50 (ΔpIC50 for inhibitors, T6'S vs wild-type) [4] | IC50 [4] [µM] | Measured dual inhibition with diltiazem compared with predictions [5] | SMILES | Competition with G-FL binding [2] | Agonist action when applied alone [4] | Measured dual inhibition with bilobalide compared with predictions [5] | Effect on agonist (5-HT) pEC50 (interpretation of nG hypothesis test) ([3]; wild-type) | other results |
| --- | --- | --- | --- | --- | --- | --- | --- | --- | --- | --- | --- | --- |
| 141 | 83 | 2.2 | approximately 2 fold | −0.34 ± 0.04 | 309 | greater than the allotopic prediction | C=CC(C)(O)CCC=C(C)C (centres unmarked) [linalool] | unaffected; also recorded: no competition | did not evoke currents; also recorded: no agonist action | greater than the allotopic prediction | No/weak evidence that linalool changes agonist pEC50 | nH (inhibitor Hill coefficient) ([3]; wild-type, population parameter estimate, listed as Linalool): 2.19 ± 0.26 |
| 258 | 174 | 1.0 | approximately 2 fold | −0.45 ± 0.22 | 724 | greater than the allotopic prediction | CC12CCC(CC1)C(C)(C)O2 [eucalyptol] | unaffected; also recorded: no competition | did not evoke currents; also recorded: no agonist action | – | Strong evidence that eucalyptol changes agonist pEC50 | Kb [3]: 813 µM; nS (Schild coefficient) [3, 10]: 1.7; pA2 (shift in agonist pEC50) [3, 10]: 3.09; nH (inhibitor Hill coefficient) [3, 11]: 1.04 ± 0.11; nS (Schild coefficient) [3, 11]: 1.70 ± 0.24; Effect on 5-HT pEC50 at T6'S [4]: did not alter the 5-HT pEC50 |
